Tests used:
ryegrass, Italian [1] = assay: Test C postemergence; format: in vivo, Lolium multiflorum; settings: 10 days, 0 to 100 scale (0 no effect, 100 complete control)
In short: (§1)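 Seeds sown in loam soil–sand blend received a directed preemergence soil spray of test chemical in non-phytotoxic solvent with surfactant; postemergence plants (2–10 cm, one- to two-leaf stage) were sprayed with the same formulation. Greenhouse-held 10 days, then visually rated for injury versus untreated controls, 0 (no effect) to 100 (complete control).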

green foxtail [2] = assay: Test C preemergence; format: in vivo, Setaria viridis; settings: for Foxtail, Green plant response rating: preemergence, 0 to 100 scale (0 no effect, 100 complete control)
In short: as §1

barnyardgrass [3] = assay: Test D flooded paddy test; format: in vivo, Echinochloa crus-galli; settings: 250 g ai/ha, applied to paddy water, visual rating after 13 to 14 days, scale 0 to 100 (0 no effect, 100 complete control)
In short: (§2)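 At the 2-leaf stage, floodwater 3 cm deep received the test compound; that depth persisted throughout. Plants scored visually 13 to 14 days on, 0 (no effect) to 100 (complete control), dash indicating no result.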

ragweed [4] = assay: Test C preemergence; format: in vivo, Ambrosia artemisiifolia; settings: for Ragweed plant response rating: preemergence, 0 to 100 scale (0 no effect, 100 complete control)
In short: as §1

oat, wild [5] = assay: Test C preemergence; format: in vivo, Avena fatua; settings: for Oat, Wild plant response rating: preemergence, 0 to 100 scale (0 no effect, 100 complete control)
In short: as §1

kochia [6] = assay: Test C preemergence; format: in vivo, Bassia scoparia; settings: for Kochia plant response rating: preemergence, 0 to 100 scale (0 no effect, 100 complete control)
In short: as §1

kochia [7] = assay: Test C postemergence; format: in vivo, Bassia scoparia; settings: 10 days, 0 to 100 scale (0 no effect, 100 complete control)
In short: as §1

corn [8] = assay: Test C postemergence; format: in vivo, Zea mays; settings: 10 days, 0 to 100 scale (0 no effect, 100 complete control)
In short: as §1

ragweed [9] = assay: Test C postemergence; format: in vivo, Ambrosia artemisiifolia; settings: 10 days, 0 to 100 scale (0 no effect, 100 complete control)
In short: as §1

wheat [10] = assay: Test C preemergence; format: in vivo, Triticum aestivum; settings: for Wheat plant response rating: preemergence, 0 to 100 scale (0 no effect, 100 complete control)
In short: as §1

oat, wild [11] = assay: Test C postemergence; format: in vivo, Avena fatua; settings: 10 days, 0 to 100 scale (0 no effect, 100 complete control)
In short: as §1

soybean [12] = assay: Test C preemergence; format: in vivo, Glycine max; settings: for Soybean plant response rating: preemergence, 0 to 100 scale (0 no effect, 100 complete control)
In short: as §1

soybean [13] = assay: Test C postemergence; format: in vivo, Glycine max; settings: 10 days, 0 to 100 scale (0 no effect, 100 complete control)
In short: as §1

ducksalad = assay: Test D flooded paddy test; format: in vivo, Heteranthera limosa; settings: 250 g ai/ha, applied to paddy water, visual rating after 13 to 14 days, scale 0 to 100 (0 no effect, 100 complete control)
In short: as §2

blackgrass [14] = assay: Test C postemergence; format: in vivo, Alopecurus myosuroides; settings: 10 days, 0 to 100 scale (0 no effect, 100 complete control)
In short: as §1

sedge, umbrella = assay: Test D flooded paddy test; format: in vivo, Cyperus difformis; settings: 250 g ai/ha, applied to paddy water, visual rating after 13 to 14 days, scale 0 to 100 (0 no effect, 100 complete control)
In short: as §2

blackgrass [15] = assay: Test C preemergence; format: in vivo, Alopecurus myosuroides; settings: for Blackgrass plant response rating: preemergence, 0 to 100 scale (0 no effect, 100 complete control)
In short: as §1

pigweed, palmer [16] = assay: Test C postemergence; format: in vivo, Amaranthus palmeri; settings: 10 days, 0 to 100 scale (0 no effect, 100 complete control)
In short: as §1

horseweed = assay: Test C postemergence; format: in vivo, Erigeron canadensis; settings: 10 days, 0 to 100 scale (0 no effect, 100 complete control)
In short: as §1

rice = assay: Test D flooded paddy test; format: in vivo, Oryza sativa; settings: 250 g ai/ha, applied to paddy water, visual rating after 13 to 14 days, scale 0 to 100 (0 no effect, 100 complete control)
In short: as §2

barnyardgrass [17] = assay: Test C preemergence; format: in vivo, Echinochloa crusgalli; settings: for Barnyardgrass plant response rating: preemergence, 0 to 100 scale (0 no effect, 100 complete control)
In short: as §1

barnyardgrass [18] = assay: Test C postemergence; format: in vivo, Echinochloa crusgalli; settings: 10 days, 0 to 100 scale (0 no effect, 100 complete control)
In short: as §1

green foxtail [19] = assay: Test C postemergence; format: in vivo, Setaria viridis; settings: 10 days, 0 to 100 scale (0 no effect, 100 complete control)
In short: as §1

galium = assay: Test C postemergence; format: in vivo, Galium aparine; settings: 10 days, 0 to 100 scale (0 no effect, 100 complete control)
In short: as §1

corn [20] = assay: Test C preemergence; format: in vivo, Zea mays; settings: for Corn plant response rating: preemergence, 0 to 100 scale (0 no effect, 100 complete control)
In short: as §1

pigweed, palmer [21] = assay: Test C preemergence; format: in vivo, Amaranthus palmeri; settings: for Pigweed, Palmer plant response rating: preemergence, 0 to 100 scale (0 no effect, 100 complete control)
In short: as §1

wheat [22] = assay: Test C postemergence; format: in vivo, Triticum aestivum; settings: 10 days, 0 to 100 scale (0 no effect, 100 complete control)
In short: as §1

ryegrass, Italian [23] = assay: Test C preemergence; format: in vivo, Lolium multiflorum; settings: for Ryegrass, Italian plant response rating: preemergence, 0 to 100 scale (0 no effect, 100 complete control)
In short: as §1

[24] = Preemergence, 125 g ai/ha, 0 to 100 scale, 0 no effect, 100 complete control

Cc1ccc(-n2cnc(CC#N)n2)cc1C(=O)N1C[C@H](C)Oc2c(Cl)cccc21 [Compound 364]
Plant response rating, Ryegrass, Italian (ryegrass, Italian [1]; 500 g ai/ha, postemergence): 100
Plant response rating, Ryegrass, Italian (ryegrass, Italian [1]; Postemergence, 125 g ai/ha): 70
Foxtail, Green plant response rating (green foxtail [2]; 500 g ai/ha): 100
Plant response rating, Foxtail, Green (green foxtail [2]; [24]): 100
Plant response rating, Barnyardgrass (Flood) (barnyardgrass [3]): 10
Ragweed plant response rating (ragweed [4]; 500 g ai/ha): 80
Plant response rating, Ragweed (ragweed [4]; [24]): 20
Oat, Wild plant response rating (oat, wild [5]; 500 g ai/ha): 30
Plant response rating, Oat, Wild (oat, wild [5]; [24]): 10
Kochia plant response rating (kochia [6]; 500 g ai/ha): 90
Plant response rating, Kochia (kochia [6]; [24]): 70
Plant response rating, Kochia (kochia [7]; 500 g ai/ha, postemergence): 90
Plant response rating, Kochia (kochia [7]; Postemergence, 125 g ai/ha): 70
Plant response rating, Corn (corn [8]; 500 g ai/ha, postemergence): 50
Plant response rating, Corn (corn [8]; Postemergence, 125 g ai/ha): 30
Plant response rating, Ragweed (ragweed [9]; 500 g ai/ha, postemergence): 80
Plant response rating, Ragweed (ragweed [9]; Postemergence, 125 g ai/ha): 70
Wheat plant response rating (wheat [10]; 500 g ai/ha): 40
Plant response rating, Wheat (wheat [10]; [24]): 0
Plant response rating, Oat, Wild (oat, wild [11]; 500 g ai/ha, postemergence): 70
Plant response rating, Oat, Wild (oat, wild [11]; Postemergence, 125 g ai/ha): 60
Soybean plant response rating (soybean [12]; 500 g ai/ha): 100
Plant response rating, Soybean (soybean [12]; [24]): 100
Plant response rating, Soybean (soybean [13]; 500 g ai/ha, postemergence): 100
Plant response rating, Soybean (soybean [13]; Postemergence, 125 g ai/ha): 100
Plant response rating, Ducksalad (Flood) (ducksalad): 80
Plant response rating, Blackgrass (blackgrass [14]; 500 g ai/ha, postemergence): 100
Plant response rating, Blackgrass (blackgrass [14]; Postemergence, 125 g ai/ha): 90
Plant response rating, Sedge, Umbrella (Flood) (sedge, umbrella): 95
Blackgrass plant response rating (blackgrass [15]; 500 g ai/ha): 90
Plant response rating, Blackgrass (blackgrass [15]; [24]): 60
Plant response rating, Pigweed, Palmer (pigweed, palmer [16]; 500 g ai/ha, postemergence): 90
Plant response rating, Pigweed, Palmer (pigweed, palmer [16]; Postemergence, 125 g ai/ha): 70
Plant response rating, Horseweed (horseweed; 500 g ai/ha, postemergence): 0
Plant response rating, Horseweed (horseweed; Postemergence, 125 g ai/ha): 0
Plant response rating, Rice (Flood) (rice): 10
Barnyardgrass plant response rating (barnyardgrass [17]; 500 g ai/ha): 100
Plant response rating, Barnyardgrass (barnyardgrass [17]; [24]): 50
Plant response rating, Barnyardgrass (barnyardgrass [18]; 500 g ai/ha, postemergence): 80
Plant response rating, Barnyardgrass (barnyardgrass [18]; Postemergence, 125 g ai/ha): 50
Plant response rating, Foxtail, Green (green foxtail [19]; 500 g ai/ha, postemergence): 90
Plant response rating, Foxtail, Green (green foxtail [19]; Postemergence, 125 g ai/ha): 80
Plant response rating, Galium (galium; 500 g ai/ha, postemergence): 100
Plant response rating, Galium (galium; Postemergence, 125 g ai/ha): 100
Corn plant response rating (corn [20]; 500 g ai/ha): 30
Plant response rating, Corn (corn [20]; [24]): 10
Pigweed, Palmer plant response rating (pigweed, palmer [21]; 500 g ai/ha): 100
Plant response rating, Pigweed, Palmer (pigweed, palmer [21]; [24]): 100
Plant response rating, Wheat (wheat [22]; 500 g ai/ha, postemergence): 80
Plant response rating, Wheat (wheat [22]; Postemergence, 125 g ai/ha): 30
Ryegrass, Italian plant response rating (ryegrass, Italian [23]; 500 g ai/ha): 90
Plant response rating, Ryegrass, Italian (ryegrass, Italian [23]; [24]): 60

COc1ncn(-c2cccc(C(=O)N3C[C@H](C)Oc4c(Cl)cccc43)c2)n1 [Compound 310]
Plant response rating, Ryegrass, Italian (ryegrass, Italian [1]; 500 g ai/ha, postemergence): 80
Plant response rating, Ryegrass, Italian (ryegrass, Italian [1]; Postemergence, 125 g ai/ha): 30
Foxtail, Green plant response rating (green foxtail [2]; 500 g ai/ha): 100
Foxtail, Green plant response rating (green foxtail [2]; Test C, 125 g ai/ha): 100
Plant response rating, Barnyardgrass (Flood) (barnyardgrass [3]): 10
Ragweed plant response rating (ragweed [4]; 500 g ai/ha): 0
Ragweed plant response rating (ragweed [4]; Test C, 125 g ai/ha): 0
Oat, Wild plant response rating (oat, wild [5]; 500 g ai/ha): 60
Oat, Wild plant response rating (oat, wild [5]; Test C, 125 g ai/ha): 0
Kochia plant response rating (kochia [6]; 500 g ai/ha): 80
Kochia plant response rating (kochia [6]; Test C, 125 g ai/ha): 50
Plant response rating, Kochia (kochia [7]; 500 g ai/ha, postemergence): 90
Plant response rating, Kochia (kochia [7]; Postemergence, 125 g ai/ha): 70
Plant response rating, Corn (corn [8]; 500 g ai/ha, postemergence): 60
Plant response rating, Corn (corn [8]; Postemergence, 125 g ai/ha): 10
Plant response rating, Ragweed (ragweed [9]; 500 g ai/ha, postemergence): 50
Plant response rating, Ragweed (ragweed [9]; Postemergence, 125 g ai/ha): 30
Wheat plant response rating (wheat [10]; 500 g ai/ha): 0
Wheat plant response rating (wheat [10]; Test C, 125 g ai/ha): 0
Plant response rating, Oat, Wild (oat, wild [11]; 500 g ai/ha, postemergence): 40
Plant response rating, Oat, Wild (oat, wild [11]; Postemergence, 125 g ai/ha): 0
Soybean plant response rating (soybean [12]; 500 g ai/ha): 0
Soybean plant response rating (soybean [12]; Test C, 125 g ai/ha): 40
Plant response rating, Soybean (soybean [13]; 500 g ai/ha, postemergence): 100
Plant response rating, Soybean (soybean [13]; Postemergence, 125 g ai/ha): 90
Plant response rating, Ducksalad (Flood) (ducksalad): 75
Plant response rating, Blackgrass (blackgrass [14]; 500 g ai/ha, postemergence): 90
Plant response rating, Blackgrass (blackgrass [14]; Postemergence, 125 g ai/ha): 50
Plant response rating, Sedge, Umbrella (Flood) (sedge, umbrella): 80
Blackgrass plant response rating (blackgrass [15]; 500 g ai/ha): 50
Blackgrass plant response rating (blackgrass [15]; Test C, 125 g ai/ha): 10
Plant response rating, Pigweed, Palmer (pigweed, palmer [16]; 500 g ai/ha, postemergence): 90
Plant response rating, Pigweed, Palmer (pigweed, palmer [16]; Postemergence, 125 g ai/ha): 70
Plant response rating, Horseweed (horseweed; 500 g ai/ha, postemergence): 30
Plant response rating, Horseweed (horseweed; Postemergence, 125 g ai/ha): 0
Plant response rating, Rice (Flood) (rice): 0
Barnyardgrass plant response rating (barnyardgrass [17]; 500 g ai/ha): 80
Barnyardgrass plant response rating (barnyardgrass [17]; Test C, 125 g ai/ha): 20
Plant response rating, Barnyardgrass (barnyardgrass [18]; 500 g ai/ha, postemergence): 80
Plant response rating, Barnyardgrass (barnyardgrass [18]; Postemergence, 125 g ai/ha): 20
Plant response rating, Foxtail, Green (green foxtail [19]; 500 g ai/ha, postemergence): 50
Plant response rating, Foxtail, Green (green foxtail [19]; Postemergence, 125 g ai/ha): 50
Plant response rating, Galium (galium; 500 g ai/ha, postemergence): 90
Plant response rating, Galium (galium; Postemergence, 125 g ai/ha): 90
Corn plant response rating (corn [20]; 500 g ai/ha): 0
Corn plant response rating (corn [20]; Test C, 125 g ai/ha): 0
Pigweed, Palmer plant response rating (pigweed, palmer [21]; 500 g ai/ha): 100
Pigweed, Palmer plant response rating (pigweed, palmer [21]; Test C, 125 g ai/ha): 80
Plant response rating, Wheat (wheat [22]; 500 g ai/ha, postemergence): 50
Plant response rating, Wheat (wheat [22]; Postemergence, 125 g ai/ha): 10
Ryegrass, Italian plant response rating (ryegrass, Italian [23]; 500 g ai/ha): 80
Ryegrass, Italian plant response rating (ryegrass, Italian [23]; Test C, 125 g ai/ha): 30

Reference: US20260262643A1, “HERBICIDAL BENZOXAZINES” (FMC CORPORATION, priority 2022, published 2026)
